Laboratory results published in patent US12643859B2, “Pyridyl oxycarboxylic acid oxime derivative and preparation method therefor, weeding composition and application thereof” (Qingdao Kingagroot Chemical Compound Co., Ltd., priority 2018, dated 2026).

Columns and labels:
Format in all cases: in vivo
Cyperus iria = assay: Post-emergence test experiment, weed control; conditions: post-emergence spray, 3 weeks in greenhouse; for Activity level (fresh weight growth inhibition rate), Cyperus iria: 600 g a.i./ha plus water 450 kg/ha
Procedure: (§1) The above described growth inhibition rate is fresh weight inhibition rate.
(§2) Post-emergence test experiment: Monocotyledonous and dicotyledonous weed seeds and main crop seeds (i. e. wheat, corn, rice, soybean, cotton, oilseed, millet and sorghum.) were put into a plastic pot loaded with soil. Then covered with 0.5-2 cm soil, the seeds were allowed to grow in good greenhouse environment. The test plants were treated at 2-3 leaf stage 2 weeks after sowing. The test compounds of the invention were dissolved with acetone respectively, then added with tween-80, and using 1.5 liters per hectare of an emulsible concentrate of methyl oleate as a synergist, and diluted by certain amount of water to certain concentration. The solution was sprayed to the plants with a sprayer. Then the plants were cultured for 3 weeks in the greenhouse, and the experiment result of weed controlling effect was listed in tables 3-4.

[1] = tested on: Monocotyledonous and dicotyledonous weed seeds and main crop seeds; assay: Post-emergence test experiment (Table 3, 1000 g a.i./ha); conditions: 3 weeks in greenhouse, fresh weight inhibition
Procedure: as §1, §2

Indica rice = assay: Post-emergence test experiment, crop selectivity; conditions: post-emergence spray, 3 weeks in greenhouse
Procedure: as §1, §2

Japonica rice = assay: Post-emergence test experiment, crop selectivity; conditions: for Activity level (fresh weight growth inhibition rate), Japonica rice: post-emergence spray, 3 weeks in greenhouse
Procedure: as §1, §2

[2] = 600 g a.i./ha plus water 450 kg/ha

Structure (SMILES) | Activity level (fresh weight growth inhibition rate), Cyperus iria (Cyperus iria) | Activity level (growth inhibition rate) Digitaria sanguinalis [1] | Activity level (growth inhibition rate) Echinochloa crusgalli [1] | Activity level (growth inhibition rate) Galium spurium [1] | Activity level (growth inhibition rate) Leptochloa chinensis [1] | Activity level (growth inhibition rate) Monochoria Vaginalis [1] | Activity level (growth inhibition rate) Murdannia triquetra [1] | Activity level (growth inhibition rate) Setaria viridis [1] | Activity level (fresh weight growth inhibition rate), Indica rice (Indica rice; [2]) | Activity level (fresh weight growth inhibition rate), Japonica rice (Japonica rice; [2]) | inhibition at 300 g/ha (Cyperus iria; Cyperus iria, 504 h, 300 g a.i./ha, read-out: Activity level (fresh weight growth inhibition rate), Cyperus iria) [%] | Activity level (fresh weight growth inhibition rate), Indica rice (Indica rice; 300 g a.i./ha) | Activity level (fresh weight growth inhibition rate), Japonica rice (Japonica rice; 300 g a.i./ha) | Selectivity to / inhibition of rice (in words) (Japonica rice; post-emergence, regardless of japonica or indica rice)
CCCC(Cl)=NOC(=O)C(C)Oc1nc(F)c(Cl)c(N)c1Cl (stereo not shown) [Compound 75] | 5 (Level 5: the growth inhibition rate is greater than 85%) | 5 (Level 5: the growth inhibition rate is greater than 85%) | 5 (Level 5: the growth inhibition rate is greater than 85%) | 5 (Level 5: the growth inhibition rate is greater than 85%) | 5 (Level 5: the growth inhibition rate is greater than 85%) | 5 (Level 5: the growth inhibition rate is greater than 85%) | 5 (Level 5: the growth inhibition rate is greater than 85%) | 5 (Level 5: the growth inhibition rate is greater than 85%) | 0 (Level 0: the growth inhibition rate is less than 5%) | 0 (Level 0: the growth inhibition rate is less than 5%) | – | – | – | –
C=COC(=O)C(=NOC(=O)C(C)Oc1nc(F)c(Cl)c(N)c1Cl)C(=O)N(C)c1ccccc1 (stereo not shown) [Compound 106] | – | 5 (Level 5: the growth inhibition rate is greater than 85%) | 5 (Level 5: the growth inhibition rate is greater than 85%) | 5 (Level 5: the growth inhibition rate is greater than 85%) | 5 (Level 5: the growth inhibition rate is greater than 85%) | 5 (Level 5: the growth inhibition rate is greater than 85%) | 5 (Level 5: the growth inhibition rate is greater than 85%) | 5 (Level 5: the growth inhibition rate is greater than 85%) | – | – | – | – | – | –
CC(Oc1nc(F)c(Cl)c(N)c1Cl)C(=O)ON=C1CCCCC1 (stereo not shown) [Compound 116] | – | 5 (Level 5: the growth inhibition rate is greater than 85%) | 5 (Level 5: the growth inhibition rate is greater than 85%) | 5 (Level 5: the growth inhibition rate is greater than 85%) | 5 (Level 5: the growth inhibition rate is greater than 85%) | 5 (Level 5: the growth inhibition rate is greater than 85%) | 5 (Level 5: the growth inhibition rate is greater than 85%) | 5 (Level 5: the growth inhibition rate is greater than 85%) | – | – | – | – | – | –
CC(Oc1nc(F)c(Cl)c(N)c1Cl)C(=O)O (stereo not shown) [Control compound A, reference compound] | 5 (Level 5: the growth inhibition rate is greater than 85%) | – | – | – | – | – | – | – | 3 (Level 3: the growth inhibition rate is equal to or greater than 40% and less than 60%) | 3 (Level 3: the growth inhibition rate is equal to or greater than 40% and less than 60%) | 60 to 85 | 3 (Level 3: the growth inhibition rate is equal to or greater than 40% and less than 60%) | 2 (Level 2: the growth inhibition rate is equal to or greater than 20% and less than 40%) | great inhibition to rice
